Values quoted from earlier work, collected in patent publication US10881700B1, “Compositions including extracts of gray mangrove leaves and methods of treatment using such compositions in treatment of viral infections” (KING ABDULLAH UNIVERSITY OF SCIENCE AND TECHNOLOGY, priority 2016, dated 2021).

Tests used:
HIV-1 reactivation = conditions: reference [26]
HIV-1 integrase = HIV-1 integrase (Human immunodeficiency virus type 1 group M subtype B, UniProt P04585); conditions: reference [24]

Compound | blocking HIV-1 reactivation in cases of virus latency (HIV-1 reactivation) | activity against HIV-1 integrase (HIV-1 integrase)
COc1ccccc1O [gluaiacol, 2-Methoxy phenol] | efficient in blocking HIV-1 reactivation | 
COC(=O)C=Cc1ccccc1 [Methyl cinnamate] |  | not demonstrated activity
